One assay addresses T1, Androgen receptor (Homo sapiens, UniProt P10275).
T1 sequence (P10275 whole entry): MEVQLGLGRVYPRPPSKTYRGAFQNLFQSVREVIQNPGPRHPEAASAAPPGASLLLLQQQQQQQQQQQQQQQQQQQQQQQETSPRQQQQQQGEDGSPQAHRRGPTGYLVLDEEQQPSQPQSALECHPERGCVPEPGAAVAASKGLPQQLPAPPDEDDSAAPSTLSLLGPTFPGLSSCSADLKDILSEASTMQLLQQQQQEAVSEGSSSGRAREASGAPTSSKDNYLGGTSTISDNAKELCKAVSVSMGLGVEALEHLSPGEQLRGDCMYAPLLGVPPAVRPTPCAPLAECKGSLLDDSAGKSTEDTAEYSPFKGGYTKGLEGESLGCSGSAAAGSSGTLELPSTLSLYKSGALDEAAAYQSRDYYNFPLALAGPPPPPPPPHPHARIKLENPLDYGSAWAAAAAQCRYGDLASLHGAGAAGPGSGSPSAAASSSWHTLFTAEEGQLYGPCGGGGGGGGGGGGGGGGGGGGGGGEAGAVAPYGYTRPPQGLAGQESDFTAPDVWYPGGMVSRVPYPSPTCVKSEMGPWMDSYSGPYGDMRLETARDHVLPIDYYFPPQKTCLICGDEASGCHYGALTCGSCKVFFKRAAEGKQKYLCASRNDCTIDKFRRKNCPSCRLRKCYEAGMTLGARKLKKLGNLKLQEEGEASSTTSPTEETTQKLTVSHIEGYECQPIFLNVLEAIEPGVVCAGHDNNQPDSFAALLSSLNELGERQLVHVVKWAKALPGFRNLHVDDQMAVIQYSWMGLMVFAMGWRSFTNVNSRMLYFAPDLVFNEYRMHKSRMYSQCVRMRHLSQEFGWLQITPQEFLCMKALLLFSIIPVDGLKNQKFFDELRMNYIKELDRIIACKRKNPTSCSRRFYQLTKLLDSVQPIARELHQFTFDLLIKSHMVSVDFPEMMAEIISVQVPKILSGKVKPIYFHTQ

The next assay concerns the target T2, Glucocorticoid receptor (Homo sapiens, UniProt P04150).
T2 sequence (P04150 whole entry): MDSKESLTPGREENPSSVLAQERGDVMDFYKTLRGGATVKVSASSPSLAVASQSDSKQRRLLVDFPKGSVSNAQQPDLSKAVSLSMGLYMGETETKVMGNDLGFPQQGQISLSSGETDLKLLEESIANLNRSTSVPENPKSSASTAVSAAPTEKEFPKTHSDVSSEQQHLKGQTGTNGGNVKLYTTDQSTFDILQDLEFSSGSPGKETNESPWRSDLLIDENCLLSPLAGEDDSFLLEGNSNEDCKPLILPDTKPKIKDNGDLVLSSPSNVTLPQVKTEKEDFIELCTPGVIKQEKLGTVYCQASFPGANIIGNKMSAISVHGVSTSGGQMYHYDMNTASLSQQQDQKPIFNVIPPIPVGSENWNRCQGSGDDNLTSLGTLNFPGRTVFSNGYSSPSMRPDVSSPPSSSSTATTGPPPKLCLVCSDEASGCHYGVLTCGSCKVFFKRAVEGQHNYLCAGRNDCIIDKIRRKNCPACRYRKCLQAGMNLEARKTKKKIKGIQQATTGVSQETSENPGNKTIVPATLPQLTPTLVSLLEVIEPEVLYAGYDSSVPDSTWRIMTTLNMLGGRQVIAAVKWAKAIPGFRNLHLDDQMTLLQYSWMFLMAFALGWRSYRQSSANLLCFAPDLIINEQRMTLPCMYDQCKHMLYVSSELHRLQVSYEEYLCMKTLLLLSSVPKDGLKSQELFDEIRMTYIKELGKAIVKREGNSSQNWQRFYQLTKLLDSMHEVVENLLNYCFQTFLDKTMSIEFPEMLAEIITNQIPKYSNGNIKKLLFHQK

Description for Androgen receptor: Displacement of DHT from human androgen receptor
Description for Glucocorticoid receptor: Displacement of Dexamethasone from human glucocorticoid receptor

One may read the Ki as the dissociation constant of the complex between target and ligand, obtained from inhibition or displacement. For the compound `CCCCC1Oc2ccc(Cl)cc2-c2ccc3c(c21)C(C)=CC(C)(C)N3` (stereo not given), the Ki at Androgen receptor is 886 nM; on Glucocorticoid receptor, 394 nM.
For `CC1=CC(C)(C)Nc2ccc3c(c21)C(CCC(C)C)Oc1ccccc1-3` (stereo not given) the same measures were 1480 nM and 158 nM.
For `CCCCC1Oc2ccc(C)cc2-c2ccc3c(c21)C(C)=CC(C)(C)N3` (stereo not given) the same measures were 903 nM and 51 nM.
In the same order, the values of `CC1=CC(C)(C)Nc2ccc3c(c21)C(C)Oc1ccc(F)cc1-3` (stereo not given) are 456 nM and 749 nM.
For the compound `CCCOC1Oc2ccc(Cl)cc2-c2ccc3c(c21)C(C)=CC(C)(C)N3` (stereo not given), the Ki on Androgen receptor worked out at 697 nM; at Glucocorticoid receptor, 260 nM.
In the same order, the values of `CC1=CC(C)(C)Nc2ccc3c(c21)C(C)Oc1ccc(Cl)cc1-3` (stereo not given) are 621 nM and 367 nM.
In the same order, the values of `CCCCC1Oc2ccc(OC)cc2-c2ccc3c(c21)C(C)=CC(C)(C)N3` (stereo not given) are 785 nM and 130 nM.
For `CCCCC1Oc2ccccc2-c2ccc3c(c21)C(C)=CC(C)(C)N3` (stereo not given) the same measures were 2050 nM and 813 nM.
As to `CCCCC1Oc2ccc(F)cc2-c2ccc3c(c21)C(C)=CC(C)(C)N3` (stereo not given), the figures for the Ki on Androgen receptor and at Glucocorticoid receptor were 1330 nM and 533 nM, respectively.
With `C=CCC1Oc2ccccc2-c2ccc3c(c21)C(C)=CC(C)(C)N3` (stereo not given), the inhibitory constant (Ki) on Androgen receptor is greater than 1000 nM; at Glucocorticoid receptor, 889 nM.

The record behind these values is ChEMBL document CHEMBL1131555 (Bioorg Med Chem Lett, 1998).
